SMILES strings stand for the structures.

Data set [1] has as its system Tetranychus urticae resistant to organic phosphorous agents. Kind of data set: Efficacy against Tetranychus urticae (spray on kidney bean plants). It is filed as in vivo. The settings on record: 500 ppm wettable powder sprayed on kidney bean plants with female adults; 25° C., humidity 65%; 3 days later. From the text: After inoculating the first true leaves of kidney bean plants planted in a no. 3 pot for which 7 to 10 days had elapsed since germination with 17 female adult Tetranychus urticae resistant to organic phosphorous agents, a chemical liquid diluted with water to a compound concentration of 500 ppm was sprayed onto the kidney bean plants in accordance with the formula of the wettable powder indicated in the aforementioned Preparation Example 1. The kidney bean plants were placed in a constant temperature chamber at a temperature of 25° C. and humidity of 65% and insect mortality rate was investigated 3 days later. The test was repeated twice.

The test system of another data set is Aphis gossypii. Description: Efficacy against Aphis gossypii (spray on infested cucumber plants). The format is in vivo. To be noted: 500 ppm emulsion sprayed on cucumber plants infested with nymphs; 25° C., humidity 65%; 5 days later. From the text:
Cucumber plants planted in a no. 3 pot for which 10 days had elapsed since germination were inoculated with adult Aphis gossypii. The adult insects were removed after 1 day, and a chemical liquid diluted with water to a compound concentration of 500 ppm was sprayed onto the cucumber plants infested with nymphs laid by the adults in accordance with the emulsion formula indicated in the aforementioned Preparation Example 2. The cucumber plants were placed in a constant temperature chamber at a temperature of 25° C. and humidity of 65% and insect viability was investigated 5 days later followed by determination of insect mortality rate. The test was repeated twice.

Turning to `Cc1cc(Cl)ccc1N=CN(C)C` [chlordimeform], the insect mortality rate in data set [1] worked out at 40%. In the data set on Aphis gossypii, `Cc1nc(N(C)C)nc(OC(=O)N(C)C)c1C` [pirimicarb] had an insect mortality rate of 9%.
